Legend:
[1] = biological target: T1, menin/MLL (terbium chelate-labeled menin, FITC-MBM1 peptide) (Homo sapiens, UniProt O00255, T541A); assay: Menin/MLL homogenous time-resolved fluorescence (HTRF) assay; format: binding; details: 30 min incubation
T1 construct: Menin (a.a 1-610-6xhis tag)
T1 sequence (O00255 with tags, fused parts or gaps T541A): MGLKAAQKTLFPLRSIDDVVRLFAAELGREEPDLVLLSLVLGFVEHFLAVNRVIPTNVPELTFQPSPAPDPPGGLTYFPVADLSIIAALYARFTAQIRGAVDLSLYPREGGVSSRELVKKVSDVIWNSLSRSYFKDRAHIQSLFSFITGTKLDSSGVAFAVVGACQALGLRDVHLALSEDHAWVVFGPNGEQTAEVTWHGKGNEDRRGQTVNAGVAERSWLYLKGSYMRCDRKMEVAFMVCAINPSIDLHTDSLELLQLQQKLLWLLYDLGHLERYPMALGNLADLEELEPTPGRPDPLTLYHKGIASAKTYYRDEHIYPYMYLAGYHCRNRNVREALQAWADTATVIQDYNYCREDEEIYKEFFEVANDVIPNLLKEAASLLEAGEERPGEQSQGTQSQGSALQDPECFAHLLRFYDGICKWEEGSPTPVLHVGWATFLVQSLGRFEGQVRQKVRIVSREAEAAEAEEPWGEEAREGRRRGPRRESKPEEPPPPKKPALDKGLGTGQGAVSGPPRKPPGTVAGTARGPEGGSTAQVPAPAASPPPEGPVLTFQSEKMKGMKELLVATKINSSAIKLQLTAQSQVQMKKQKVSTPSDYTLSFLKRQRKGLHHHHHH
In short: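 Displacement of FITC-labeled MBM1 peptide (75 nM) from terbium-labeled menin 1-610 (200 pM) measured by HTRF emission ratio. Eleven four-fold dilutions, typically from 10 μM, normalised to saturating-competitor and no-compound controls; IC50 from four-parameter logistic.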

MOLM14 cells = assay: Proliferation assay, spheroid-like growth, MOLM14 (MLL-AF9 rearranged); format: cell-based, human; details: Homo sapiens, MOLM-14, 192 h, 8 days, confluence as measure of spheroid size, read-out: spheroid assay_OneTime MOLM14 IC50
In short: (§1)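 Read-out is spheroid confluence from live-cell images taken on day 8, scaled between DMSO-treated wells (0% cytotoxicity) and a low control such as 1 μM staurosporin. Cells were exposed to compound for 8 days in low-attachment plates; KO-52 served as the MLL-wildtype counterscreen.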

KO-52 cells = assay: Proliferation assay, spheroid-like growth, KO-52 (MLL wildtype control cell line); format: cell-based, human; details: Homo sapiens, 192 h, KO-52 control cells, 8 days, confluence as measure of spheroid size; read-out: spheroid assay_OneTime KO-52 IC50
In short: as §1

Row | IC50 [1] [nM] | IC50 (MOLM14 cells) [nM] | Compound | IC50 (KO-52 cells) [nM]
1 | 5.3 | 730 | CC(C)[C@@H]([C@H]1C[C@@H](N(C)C)C1)N1CC2(CCN(c3ncnnc3Oc3ccc(F)cc3-c3ncccc3C3CC3)C2)C1 (single isomer, unassigned) [Compound 153] | 4830
2 | 0.4 | 230 | CC(C)[C@H](C1CC2(C1)CN(CC1COC1)C2)N1CC2(CCN(c3ncnnc3Oc3ccc(F)cc3-c3cncnc3C3CC3)C2)C1 (single isomer, unassigned) [Compound 154] | 9080
3 | 2.3 | 570 | CC(C)[C@H](C1CC2(CCN2CC2COC2)C1)N1CC2(CCN(c3ncnnc3Oc3ccc(F)cc3-c3cncnc3C3CC3)C2)C1 (single isomer, unassigned) [Compound 155] | > 15000
4 | 0.2 | 120 | CC(C)[C@@H](C1CC2(C1)CN(CC1COC1)C2)N1CC2(CCN(c3ncnnc3Oc3ccc(F)cc3-c3cncnc3C3CC3)C2)C1 (single isomer, unassigned) [Compound 157] | 7770
5 | 0.8 | 480 | CC(C)[C@@H](C1CC2(CCN2CC2COC2)C1)N1CC2(CCN(c3ncnnc3Oc3ccc(F)cc3-c3cncnc3C3CC3)C2)C1 (single isomer, unassigned) [Compound 158] | > 15000
6 | 0.3 | 110 | CC(C)C(C1CC(C)(O)C1)N1CC2(CCN(c3ncnnc3Oc3ccc(F)cc3-c3cncnc3C3CC3)C2)C1 (single isomer, unassigned) [Compound 159] | 1100
7 | 23.2 | > 3750 | CC(C)[C@@H](C1CC(C)(O)C1)N1CC2(CCN(c3ncnnc3Oc3ccc(F)cc3-c3cncnc3C3CC3)C2)C1 (single isomer, unassigned) [Compound 160] | > 15000
8 | 0.1 | 11 | CC(C)[C@H]([C@H]1C[C@@H](NC2CCOCC2)C1)N1CC2(CCN(c3ncnnc3Oc3ccc(F)cc3-c3cncnc3C3CC3)C2)C1 (single isomer, unassigned) [Compound 163] | 4370
9 | 0.1 | 10 | CC(C)[C@H]([C@H]1C[C@@H](N(C)C2CCOCC2)C1)N1CC2(CCN(c3ncnnc3Oc3ccc(F)cc3-c3cncnc3C3CC3)C2)C1 (single isomer, unassigned) [Compound 164] | 1410
10 | 0.8 | 200 | CC(C)[C@@H]([C@H]1C[C@@H](NC2CCOCC2)C1)N1CC2(CCN(c3ncnnc3Oc3ccc(F)cc3-c3cncnc3C3CC3)C2)C1 (single isomer, unassigned) [Compound 165] | 9910
11 | 0.1 | 5 | CC(=O)N1CC2(C1)CN([C@H]1C[C@@H]([C@@H](C(C)C)N3CC4(CCN(c5ncnnc5Oc5ccc(F)cc5-c5cncnc5C5CC5)C4)C3)C1)C2 (single isomer, unassigned) [Compound 170] | 8680
12 | 0.1 | 31 | CC(=O)N1CC2(C1)CN([C@H]1C[C@H]([C@@H](C(C)C)N3CC4(CCN(c5ncnnc5Oc5ccc(F)cc5-c5cncnc5C5CC5)C4)C3)C1)C2 (single isomer, unassigned) [Compound 171] | > 15000
13 | 0.1 | 22 | CC(=O)N1CCC12CN([C@H]1C[C@@H]([C@@H](C(C)C)N3CC4(CCN(c5ncnnc5Oc5ccc(F)cc5-c5cncnc5C5CC5)C4)C3)C1)C2 (single isomer, unassigned) [Compound 172] | 10100
14 | 0.2 | 150 | CC(=O)N1CCC12CN([C@H]1C[C@H]([C@@H](C(C)C)N3CC4(CCN(c5ncnnc5Oc5ccc(F)cc5-c5cncnc5C5CC5)C4)C3)C1)C2 (single isomer, unassigned) [Compound 173] | > 15000
15 | 0.1 | 9 | CC(=O)N1CCCC12CN([C@H]1C[C@@H]([C@@H](C(C)C)N3CC4(CCN(c5ncnnc5Oc5ccc(F)cc5-c5cncnc5C5CC5)C4)C3)C1)C2 (single isomer, unassigned) [Compound 174] | 7400
16 | 0.1 | 110 | CC(=O)N1CCCC12CN([C@H]1C[C@H]([C@@H](C(C)C)N3CC4(CCN(c5ncnnc5Oc5ccc(F)cc5-c5cncnc5C5CC5)C4)C3)C1)C2 (single isomer, unassigned) [Compound 175] | > 15000
17 | 0.2 | 37 | CC(=O)N[C@H]1C[C@@H]([C@@H](C(C)C)N2CC3(CCN(c4ncnnc4Oc4ccc(F)cc4-c4nccnc4C4CC4)C3)C2)C1 (single isomer, unassigned) [Compound 177] | 8870
18 | 108 | > 940 | CC(=O)N[C@H]1C[C@@H]([C@H](C(C)C)N2CC3(CCN(c4ncnnc4Oc4ccc(F)cc4-c4nccnc4C4CC4)C3)C2)C1 (single isomer, unassigned) [Compound 178] | > 15000
19 | 0.3 | 62 | CC(=O)N[C@H]1C[C@@H]([C@@H](C(C)C)N2CC3(CCN(c4ncnnc4Oc4ccc(F)cc4-c4ncncc4C4CC4)C3)C2)C1 (single isomer, unassigned) [Compound 180] | 10100
20 | 96.9 | > 940 | CC(=O)N[C@H]1C[C@@H]([C@H](C(C)C)N2CC3(CCN(c4ncnnc4Oc4ccc(F)cc4-c4ncncc4C4CC4)C3)C2)C1 (single isomer, unassigned) [Compound 181] | > 15000
21 | 0.1 | 6 | CC(C)[C@H]([C@H]1C[C@@H](NC(=O)C2CC2)C1)N1CC2(CCN(c3ncnnc3Oc3ccc(F)cc3-c3cnncc3C3CC3)C2)C1 (single isomer, unassigned) [Compound 185] | 6040
22 | 5.4 | > 940 | CC(C)[C@@H]([C@H]1C[C@@H](NC(=O)C2CC2)C1)N1CC2(CCN(c3ncnnc3Oc3ccc(F)cc3-c3cnncc3C3CC3)C2)C1 (single isomer, unassigned) [Compound 186] | 7050
23 | 0.1 | 16 | CC(C)[C@H]([C@H]1C[C@@H](N2CCC[C@H](F)C2)C1)N1CC2(CCN(c3ncnnc3Oc3ccc(F)cc3-c3cncnc3C3CC3)C2)C1 (single isomer, unassigned) [Compound 200] | 9710
24 | 0.2 | 6 | CC1CN([C@H]2C[C@@H]([C@@H](C(C)C)N3CC4(CCN(c5ncnnc5Oc5ccc(F)cc5-c5cncnc5C5CC5)C4)C3)C2)CCC1O (single isomer, unassigned) [Compound 201] | 4240
25 | 0.3 | 190 | CC(C)[C@H]([C@H]1C[C@H](N2CCC3(C2)CS(=O)(=O)C3)C1)N1CC2(CCN(c3ncnnc3Oc3ccc(F)cc3-c3cncnc3C3CC3)C2)C1 (single isomer, unassigned) [Compound 204] | > 15000
26 | 0.1 | 39 | CC(C)[C@H]([C@H]1C[C@@H](N2CCC3(C2)CS(=O)(=O)C3)C1)N1CC2(CCN(c3ncnnc3Oc3ccc(F)cc3-c3cncnc3C3CC3)C2)C1 (single isomer, unassigned) [Compound 205] | 8470
27 | 0.2 | 9 | CC(C)[C@H]([C@H]1C[C@@H](N2CCC[C@@H](F)C2)C1)N1CC2(CCN(c3ncnnc3Oc3ccc(F)cc3-c3cncnc3C3CC3)C2)C1 (single isomer, unassigned) [Compound 206] | 7950
28 | 0.3 | 29 | CC(C)[C@H]([C@H]1C[C@@H](N2CCOCC2)C1)N1CC2(CCN(c3ncnnc3Oc3ccc(F)cc3-c3cncnc3C3CC3)C2)C1 (single isomer, unassigned) [Compound 208] | 9130
29 | 0.3 | 16 | CC(C)[C@H]([C@H]1C[C@@H](N2CCC(S(=O)(=O)C(C)C)CC2)C1)N1CC2(CCN(c3ncnnc3Oc3ccc(F)cc3-c3cncnc3C3CC3)C2)C1 (single isomer, unassigned) [Compound 209] | 5260
